Columns and labels:
SD rats = test: MIA-induced osteoarthritis (OA) model in rats; assay type: in vivo; details: for gross observation of knee joint femoral condyle cartilage: Day 15 dissection, 5 rats per group
Method: SD rats, approximately 200 g, male. Purchased from Shanghai Bikai Animal Co., Ltd. Adaptive feeding was conducted for about 7 days.
3.1.1 Anesthesia: the rat was placed into the anesthesia box, the O2 gas source and the gas delivery pump were turned on, and the gas adjustment knob was rotated to set the ratio of O2 to isoflurane at 8:2. The anesthesia depth knob was adjusted: first the indicator was turned to 3 to induce deep anesthesia in the rat; during the subsequent surgical procedure, the indicator was adjusted to 1.5 to maintain anesthesia. The three-way valve was opened to deliver gas into both the anesthesia box and the rat anesthesia mask.
The syringe needle was inserted at a 45° angle to the plateau along the lateral side of the patellar ligament, as shown in the figure below. The Control group is injected with 50 µl of 0.9% sterile normal saline, while the other groups are injected with 50 µl of sterile normal saline containing 3 mg of MIA. After the procedure, the rat was removed, placed in a breeding cage, and irradiated with an incandescent lamp to help restore body temperature until the rat recovers from anesthesia.
The Control group was administered 5% DMSO + 35% PEG400 + 60% normal saline. The compounds were dissolved in a system consisting of 5% dimethyl sulfoxide (DMSO), 35% polyethylene glycol 400 (PEG 400), and 60% normal saline. The drug solutions were prepared on the evening one day before administration.
The rats were acclimated for 1 week and randomly divided into groups, with a total of 10 rats. The Control group was administered 5% DMSO + 35% PEG400 + 60% normal saline, while the other groups were given the test compounds dissolved in 5% DMSO + 35% PEG400 + 60% normal saline.
3.4.1. From Day 1 to Day 14 of the experiment, the rats were administered intragastrically once daily, with a gavage volume of 5 mL/kg. The Control group and Model group were given 5% DMSO + 35% PEG400 + 60% normal saline throughout the experiment, while the other groups were administered the corresponding drugs.
On Day 7 and Day14 of the experiment, behavioral and joint pain tests were performed on the rats. To minimize confounding factors, the tests were conducted 1 hour after administration at a fixed time, preventing variations in the rats' condition at different time points from affecting the experimental results. The rats were allowed to acclimate to the environment for 20 minutes before the start of the experiment. • (1) Observation of walking distance and rearing times within five minutes: the dimensions of the resin box were measured and a paper sheet of the corresponding size was prepared. 1 cm × 1 cm grids were drawn on the paper sheet. The paper sheet was sealed with a transparent tape to prevent damage from rat excrement. Then the paper sheet with 1 cm × 1 cm grids was placed into the transparent resin box, ensuring a flat bottom. A camera device was used to record the walking process and trajectory of the rat within 5 minutes, and the walking distance and rearing times of the rat were counted. • (2) Joint Pain Assessment: After fixing the rat and allowing it to calm down, its knee joint was gently bent. […] The knee joint pain severity in rats is reflected by the scores of leg withdrawal and vocalization. The joint pain assessment was performed every 5 seconds for a total of 5 times.
On Day 15 of the experiment, the rats were anesthetized, and blood was collected from their eyeballs. The serum was left to stand overnight at 4°C, centrifuged at 3600 rpm for 15 minutes at 4°C. The serum was aspirated and stored at -80°C. The rats were sacrificed by cervical dislocation. An incision was made along the knee joint on ice to remove fur, muscle, and other tissues. For each group, 5 rats were used; bilateral knee joints were dissected, and the color, roughness, and integrity of the femoral condyle surface were observed. The knee joint cartilage was then harvested and cryopreserved at -80°C. […]

hS1P4 = test: Tango β-arrestin recruitment luciferase assay, Tango-hS1P4-CHO; assay type: cell-based, human; details: S1PR4 versus S1PR1, β-arrestin recruitment EC50
How it was run: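 CHO Tango cells (receptor–V2 tail–TEV/tTA fusion, β-arrestin 2–TEV, UAS-luciferase reporter) plated overnight (20 h) at 37°C, then treated 20 h with compounds, top final 45 µM, 9 five-fold dilutions, triplicates. Luciferase luminescence read; BAF-312 positive control at 1 µM (S1PR1) or 25 µM (S1PR4).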

[1] = DAY7, 0.3 mg/kg intragastric once daily, vs Model group
[2] = DAY7, 3 mg/kg intragastric once daily, vs Model group
[3] = DAY14, 0.3 mg/kg, vs Model group

Row | Compound | OARSI score (severity of knee osteoarthritis) (SD rats; 0.3 mg/kg, vs Model group) | OARSI score (severity of knee osteoarthritis) (SD rats; 1 mg/kg, vs Model group) | OARSI score (severity of knee osteoarthritis) (SD rats; 3 mg/kg, vs Model group) | pain index (SD rats; [1]) | five-minute walking distance (SD rats; DAY7, 0.3 mg/kg, vs Model group) | five-minute walking distance (SD rats; DAY7, 1 mg/kg, vs Model group) | pain index (SD rats; [2]) | five-minute walking distance (SD rats; [3]) | pain index (SD rats; DAY14, 1 mg/kg, vs Model group) | five-minute walking distance (SD rats; DAY14, 3 mg/kg, vs Model group) | pain index (SD rats; DAY14, 3 mg/kg, vs Model group) | gross observation of knee joint femoral condyle cartilage (SD rats) | Safranin O-Fast Green staining of knee joints (SD rats; vs Model group) | selectivity over S1PR1 (hS1P4) | pain index (SD rats; DAY7, 1 mg/kg intragastric once daily, vs Model group) | five-minute walking distance (SD rats; DAY14, 1 mg/kg, vs Model group) | serum IL-10 level (SD rats; Elisa, vs Model group) | serum IL-17 level (SD rats; Elisa, vs Model group)
1 | CCc1cc(/C(C)=N/OCc2ccc(-c3ccccc3)c(C)c2)ccc1CN1CC[C@H](C(=O)O)C1 [Compound 30] | showed significant differences | showed significant differences | showed significant differences | significantly decreased | increased significantly | increased significantly | significantly decreased | increased significantly | significantly decreased | increased significantly | significantly decreased | knee cartilage in most rats became smooth and glossy | enhanced safranin staining | approximately 10 fold | – | – | – | –
2 | CCc1cc(/C(C)=N/OCc2ccc(-c3cnc(F)cn3)c(C)c2)ccc1CN1CC[C@H](C(=O)O)C1 [Compound 67, (S, E)-1-(2-ethyl-4-(1-(((4-(5-fluoropyrazin-2-yl)-3-methylbenzyl)oxy)imino)ethyl)benzyl)pyrrolidine-3-carboxylic acid] | – | showed significant effects | showed significant effects | significantly decreased | – | increased significantly | significantly decreased | increased significantly | significantly decreased | increased significantly | significantly decreased | cartilage of most rat knee joints became smooth and bright | enhanced Safranin O staining | more than 100 fold | significantly decreased | increased significantly | tended to upregulate | tended to upregulate

— patent EP4790048A1, “S1PR4 REGULATOR COMPOUND FOR AUTOIMMUNE DISEASE TREATMENT AND APPLICATION THEREOF” (Shengyuan Zetong (Shanghai) Pharmaceutical Co., Ltd, priority 2023, dated 2025)
